# Experimental data from US20100144672A1, “PYRIMIDINYL PYRAZOLES AS INSECTICIDES AND PARASITICIDE ACTIVE AGENTS” (BAYER CROPSCIENCE AG, priority 2006, published 2010).
# Like-named read-outs stand apart in the source and are kept apart here.
# How the values were obtained:
# [1] = logP by HPLC (EEC-Directive 79/831 Annex V.A8); format: physicochemical
# Procedure: The logP values given in the tables were determined in accordance with EEC-Directive 79/831 Annex V.A8 by HPLC (gradient method, acetonitrile/0.1% strength aqueous phosphoric acid or formic acid).
# [2] = test system: larvae of the mustard beetle (Phaedon cochleariae); test: Phaedon test (PHAECO spray treatment); format: in vivo; details: 168 h, application rate 500 g/ha, after 7 d, read-out: activity (effect in %, beetle larvae killed)
# Procedure: Phaedon Test ([…] Spray Treatment) [table] To produce a suitable preparation of active compound, 1 part by weight of active compound is mixed with the stated amounts of solvents and emulsifier, and the concentrate is diluted with emulsifier-containing water to the desired concentration. Discs of chinese cabbage (Brassica pekinensis) are sprayed with an active compound preparation of the desired concentration and, after drying, populated with larvae of the mustard beetle (Phaedon cochleariae). After the desired period of time, the effect in % is determined 100% means that all beetle larvae have been killed; 0% means that none of the beetle larvae have been killed.
# [3] = test system: caterpillars of the army worm (Spodoptera frugiperda); test: Spodoptera frugiperda test (SPODFR spray treatment); format: in vivo; details: 168 h, application rate 500 g/ha, after 7 d, read-out: activity (effect in %, caterpillars killed)
# Procedure: Spodoptera frugiperda Test (SPODFR Spray Treatment) [table] To produce a suitable preparation of active compound, 1 part by weight of active compound is mixed with the stated amounts of solvents and emulsifier, and the concentrate is diluted with emulsifier-containing water to the desired concentration. Discs of maize leaves (Zea mays) are sprayed with an active compound preparation of the desired concentration and, after drying, populated with caterpillars of the army worm (Spodoptera frugiperda). After the desired period of time, the effect in % is determined 100% means that all caterpillars have been killed; 0% means that none of the caterpillars have been killed.
# [4] = HPLC gradient method, acetonitrile/0.1% strength aqueous phosphoric acid or formic acid
# [5] = Physical data column of Table 35
# [6] = HPLC gradient method, acetonitrile/0.1% aqueous phosphoric acid or formic acid
structure (smiles),measurement,setting,value
Cc1cc(C)cc(-c2c(C(F)(F)F)nn(-c3nccc(C)n3)c2N)c1 [Example 19-202],lgP,"[1]; Table 19, Physical data",lgP = 3.42
FC(F)(F)c1cc(Cl)cc(-c2c(C(F)(F)F)nn(-c3ncccn3)c2I)c1 [Example 14-59],"logP (lgP), Physical data",[1]; by HPLC,lgP = 4.39
Cc1ccnc(-n2nc(C(F)(F)F)c(-c3cc(F)cc(F)c3)c2N)n1 [Example 19-199],lgP,"[1]; Table 19, Physical data",lgP = 3.06
Cc1ccnc(-n2nc(C(F)(F)F)c(-c3cccc(Br)c3)c2N)n1 [Example 19-09],lgP,"[1]; Table 19, Physical data",lgP = 3.84
Cc1nn(-c2ncccn2)c(NCC2CC2)c1-c1ccc(F)cc1 [Example 26-62],logP,[1]; Physical data of Table 26,logP = 3.15
Cc1cnc(-n2nc(C(F)(F)F)c(-c3ccc(F)c(F)c3)c2N)nc1 [Example 19-206],lgP,"[1]; Table 19, Physical data",lgP = 3.02
Nc1c(-c2cc(F)cc(Cl)c2)c(C(F)(F)F)nn1-c1ncc(F)cn1 [Example 43-07],lgP,[1]; [4],lgP = 3.24
Cc1cnc(-n2nc(C(F)(F)F)c(-c3cc(C)cc(C)c3)c2N)nc1 [Example 19-208],lgP,"[1]; Table 19, Physical data",lgP = 3.47
Cc1ccnc(-n2nc(C(F)(F)F)c(-c3ccc(Cl)c(Cl)c3)c2N)n1 [Example 19-18],lgP,"[1]; Table 19, Physical data",lgP = 3.73
Cc1nn(-c2ncccn2)c(N)c1-c1ccc(F)cc1Cl [Example 16-18],logP,[1]; Physical data column of Table 16,logP = 1.71
"Nc1c(-c2ccc(Cl)c(Br)c2)c(C(F)(F)F)nn1-c1ncccn1 [Example 1-87, 4-(3-bromo-4-chlorophenyl)-2-pyrimidin-2-yl-5-(trifluoromethyl)-2H-pyrazol-3-ylamine]",pest or weed control at 500 g/ha,[2],≥ 80%
same,pest or weed control at 500 g/ha,[3],≥ 80%
CCc1nn(-c2ncccn2)c(N)c1-c1ccc(Cl)nc1 [Example 32-37],lgP,[1]; Physical data column of Table 32,lgP = 1.76
Nc1c(-c2ccc(F)c(F)c2)c(C(F)(F)F)nn1-c1ncc(F)cn1 [Example 43-10],lgP,[1]; [4],lgP = 2.84
Nc1c(-c2ccc(Br)cc2)c(C(F)(F)F)nn1-c1ncc(F)cn1 [Example 19-48],lgP,"[1]; Table 19, Physical data",lgP = 3.19
FC(F)(F)c1cc(Cl)cc(-c2c(C(F)(F)F)nn(-c3ncccn3)c2Br)c1 [Example 14-58],"logP (lgP), Physical data",[1]; by HPLC,lgP = 4.64
CCNc1c(-c2ccc(F)cc2)c(C)nn1-c1ncccn1 [Example 25-04],logP,"[1]; Table 25, Physical data",logP = 2.59
Cc1ccnc(-n2nc(C(F)(F)F)c(-c3ccc(Br)cc3)c2N)n1 [Example 19-10],lgP,"[1]; Table 19, Physical data",lgP = 3.37
"CNc1c(-c2ccc(Br)cc2)c(C(F)(F)F)nn1-c1ncccn1 [Example 11-10, 4-(4-bromophenyl)-N-methyl-1-pyrimidin-2-yl-3-(trifluoromethyl)-1H-pyrazole-5-amine]",pest or weed control at 500 g/ha,[2],≥ 80%
C[S+]([O-])c1ccc(-c2c(C(F)(F)F)nn(-c3ncccn3)c2N)cc1 (stereo not drawn) [Example 5-59],pest or weed control at 500 g/ha,[2],≥ 80%
CCNc1c(-c2cccc(Cl)c2)c(C)nn1-c1ncccn1 [Example 25-06],logP,"[1]; Table 25, Physical data",logP = 3.02
FC(F)(F)c1nn(-c2ncccn2)c(I)c1-c1ccc(Cl)c(Cl)c1 [Example 14-56],"logP (lgP), Physical data",[1]; by HPLC,lgP = 4.39
Nc1c(-c2ccc(Br)cc2F)c(C(F)(F)F)nn1-c1ncc(F)cn1 [Example 43-09],lgP,[1]; [4],lgP = 3.15
Nc1c(-c2ccc(Br)cc2)c(C2CCCC2)nn1-c1ncccn1 [Example 35-87],logP,[1]; [5],logP 3.34
Nc1c(-c2cc(F)cc(F)c2)c(C(F)(F)F)nn1-c1ncc(F)cn1 [Example 43-08],lgP,[1]; [4],lgP = 2.93
Cc1nn(-c2ncccn2)c(NCc2ccccc2)c1-c1ccccc1Cl [Example 26-44],logP,[1]; Physical data of Table 26,logP = 3.37
CC(C)Oc1ccc(-c2c(C(F)(F)F)nn(-c3ncccn3)c2N)cc1 [Example 5-25],pest or weed control at 500 g/ha,[2],≥ 80%
Nc1c(-c2ccc(Cl)cc2)c(C2CC2)nn1-c1ncccn1 [Example 35-07],logP,[1]; [5],logP 2.66; ^1H-NMR
Cc1cnc(-n2nc(C(F)(F)F)c(-c3cc(F)cc(Cl)c3)c2N)nc1 [Example 19-203],lgP,"[1]; Table 19, Physical data",lgP = 3.42
CCNc1c(-c2ccc(F)cc2Cl)c(C)nn1-c1ncccn1 [Example 25-31],logP,[1],logP = 2.79
N#Cc1ccnc(-n2nc(C(F)(F)F)c(-c3cc(Cl)cc(Cl)c3)c2N)n1 [Example 19-209],lgP,"[1]; Table 19, Physical data",lgP = 3.84
Nc1c(-c2cc(Cl)cc(Cl)c2)c(C(F)(F)F)nn1-c1ncc(Br)cn1 [Example 19-95],lgP,"[1]; Table 19, Physical data",lgP = 4.15
Cc1ccnc(-n2nc(C(F)(F)F)c(-c3cc(F)cc(Cl)c3)c2N)n1 [Example 19-198],lgP,"[1]; Table 19, Physical data",lgP = 3.42
Nc1c(-c2ccc(Cl)cc2)c(C(F)(F)F)nn1-c1ncc(Cl)cn1 [Example 19-64],lgP,"[1]; Table 19, Physical data",lgP = 3.53
Nc1c(-c2ccccc2Cl)c(C(F)(F)F)nn1-c1ncccn1 [1-04],logP,[1],logP = 2.59
N#Cc1cccc(-c2c(C(F)(F)F)nn(-c3ncccn3)c2N)c1 [Example 6-70],pest or weed control at 500 g/ha,[2],≥ 80%
same,pest or weed control at 500 g/ha,[3],≥ 80%
FC(F)(F)c1nn(-c2ncccn2)c(I)c1-c1cc(Cl)cc(Cl)c1 [Example 14-57],"logP (lgP), Physical data",[1]; by HPLC,lgP = 4.51
CC(C)=CCNc1c(-c2ccc(Cl)cc2)c(C)nn1-c1ncccn1 [Example 26-84],logP,[1]; Physical data of Table 26,logP = 3.84
CS(=O)(=O)c1ccc(-c2c(C(F)(F)F)nn(-c3ncccn3)c2N)cc1 [Example 5-60],pest or weed control at 500 g/ha,[2],≥ 80%
Nc1c(-c2cc(Cl)cc(Cl)c2)c(C(F)(F)F)nn1-c1ncc(Cl)cn1 [Example 19-76],lgP,"[1]; Table 19, Physical data",lgP = 4.10
"CC(C)Oc1ccc(-c2c(C(F)(F)F)nn(-c3ncccn3)c2N)cc1Cl [Example 8-92, 4-(3-chloro-4-isopropoxyphenyl)-2-pyrimidin-2-yl-5-trifluoromethyl-2H-pyrazol-3-ylamine]",pest or weed control at 500 g/ha,[2],≥ 80%
Nc1c(-c2cccc([N+](=O)[O-])c2)c(C(F)(F)F)nn1-c1ncccn1 [Example 6-78],pest or weed control at 500 g/ha,[2],≥ 80%
same,pest or weed control at 500 g/ha,[3],≥ 80%
Cc1nn(-c2ncccn2)c(NCc2ccccc2)c1-c1ccc(Cl)cc1Cl [Example 26-54],logP,[1]; Physical data of Table 26,logP = 4.23
Cc1cnc(-n2nc(C(F)(F)F)c(-c3cc(Br)cc(Br)c3)c2N)nc1 [Example 19-207],lgP,"[1]; Table 19, Physical data",lgP = 4.05
Cc1ccnc(-n2nc(C(F)(F)F)c(-c3ccc(F)c(F)c3)c2N)n1 [Example 19-201],lgP,"[1]; Table 19, Physical data",lgP = 3.02
COc1ccnc(-n2nc(C(F)(F)F)c(-c3cc(Cl)cc(Cl)c3)c2N)n1 [Example 19-171],lgP,"[1]; Table 19, Physical data",lgP = 2.93
Nc1c(-c2cc(Br)cc(Br)c2)c(C(F)(F)F)nn1-c1ncc(F)cn1 [Example 43-11],lgP,[1]; [4],lgP = 3.84
Nc1c(-c2cccc(Cl)c2)c(C(F)(F)F)nn1-c1ncccn1 [Example 1-5],logP,[1]; [6],logP = 2.96
FC(F)(F)c1nn(-c2ncccn2)c(Br)c1-c1cccc(Cl)c1 [Example 14-25],"logP (lgP), Physical data",[1]; by HPLC,lgP = 3.89
CSc1ccc(-c2c(C(F)(F)F)nn(-c3ncccn3)c2N)cc1 [Example 5-58],pest or weed control at 500 g/ha,[2],≥ 80%
Nc1c(-c2cccc(SC(F)(F)F)c2)c(C(F)(F)F)nn1-c1ncccn1 [Example 6-61],pest or weed control at 500 g/ha,[2],≥ 80%
CN(C)c1ccc(-c2c(C(F)(F)F)nn(-c3ncccn3)c2N)cc1 [Example 5-89],pest or weed control at 500 g/ha,[2],≥ 80%
FC(F)(F)c1nn(-c2ncccn2)c(Br)c1-c1ccc(Br)cc1 [Example 14-29],chromatographic logP,"[1]; by HPLC, read-out: logP (lgP), Physical data",3.75
CCOc1ccc(-c2c(C(F)(F)F)nn(-c3ncccn3)c2N)cc1 [Example 5-23],pest or weed control at 500 g/ha,[2],≥ 80%
Cc1cnc(-n2nc(C(F)(F)F)c(-c3ccc(Br)cc3F)c2N)nc1 [Example 19-205],lgP,"[1]; Table 19, Physical data",lgP = 3.28
CCCNc1c(-c2ccc(Cl)cc2)c(C)nn1-c1ncccn1 [Example 26-7],logP,[1]; Physical data of Table 26,logP = 3.42
CCNc1c(-c2ccccc2Cl)c(C)nn1-c1ncccn1 [Example 25-05],logP,"[1]; Table 25, Physical data",logP = 2.69
CCCNc1c(-c2cccc(Cl)c2)c(C)nn1-c1ncccn1 [Example 26-6],logP,[1]; Physical data of Table 26,logP = 3.37
FC(F)(F)c1nn(-c2ncccn2)c(Br)c1-c1cc(Cl)cc(Cl)c1 [Example 14-38],"logP (lgP), Physical data",[1]; by HPLC,lgP = 4.62
Nc1c(-c2cc(Cl)cc(Cl)c2)c(C(F)(F)F)nn1-c1nccc(C(F)(F)F)n1 [Example 19-152],lgP,"[1]; Table 19, Physical data",lgP = 4.25
Cc1nn(-c2ncccn2)c(NC(C)C)c1-c1ccc(F)cc1Cl [Example 26-37],logP,[1]; Physical data of Table 26,logP = 2.91
FC(F)(F)c1nn(-c2ncccn2)c(I)c1-c1cccc(Cl)c1 [Example 14-44],"logP (lgP), Physical data",[1]; by HPLC,lgP = 3.78
Nc1c(-c2cc(Cl)cc(Cl)c2)c(C(F)(F)F)nn1-c1ncc(F)cn1 [Example 19-57],lgP,"[1]; Table 19, Physical data",lgP = 3.63
FC(F)(F)c1nn(-c2ncccn2)c(Cl)c1-c1cccc(Cl)c1 [Example 14-06],"logP (lgP), Physical data",[1]; by HPLC,lgP = 3.88
Nc1c(-c2ccc(Oc3ccccc3)cc2)c(C(F)(F)F)nn1-c1ncccn1 [5-40],logP,[1]; [6],logP 3.22
Cc1ccnc(-n2nc(C(F)(F)F)c(-c3ccc(Br)cc3F)c2N)n1 [Example 19-200],lgP,"[1]; Table 19, Physical data",lgP = 3.28
Cc1cnc(-n2nc(C(F)(F)F)c(-c3cc(F)cc(F)c3)c2N)nc1 [Example 19-204],lgP,"[1]; Table 19, Physical data",lgP = 3.06
